Reference: patent publication US20130288917A1, “Rapid High Resolution, High Throughput RNA Structure, RNA-Macromolecular Interaction, and RNA-Small Molecule Interaction Mapping” (The Board of Trustees of the Leland Stanford Junior …, priority 2010, published 2013)
Entries after “also recorded” stand apart in the source; their conditions may differ.

Test system: HCV IRES
Assay: sf-SHAPE structure mapping of the HCV IRES in the presence of miRNA
Type: binding, Hepatitis C virus
Description: First, the intricacies (and cost) introduced by using multiple fluorophores have been eliminated by using a single fluorophore-labelled primer and multiple capillaries, rather than using multiple fluorophores sets in each capillary. We have therefore named this technique, single fluorophore SHAPE (sf-SHAPE). sf-SHAPE is a fragment analysis method that uses an internal standard to allow data from one capillary to be directly compared to data from another, with high precision. Commercial software (Peak Scanner, ABI), as well as custom-designed software (CAFA)11, which assign fragment lengths to peaks using an internal standard and integrates each peak area, are freely available.
We have designed a program entitled Fast Analysis of SHAPE Traces (FAST), which then takes the output from Peak Scanner and automatically (a) corrects for signal decay; (b) corrects for differences in signal strength among samples; and (c) assigns the determined SHAPE reactivity to the appropriate nucleotide, using a ddNTP sequencing ladder and the local southern method. […] FAST is able to generate SHAPE reactivity data from electrophoretic traces in as little as 5-10 minutes, as opposed to hours, with high experimental reproducibility (R2=0.93).
We next explored the effect of miR-122 on the HCV IRES structure. In this experiment, the HCV IRES structure was determined in the presence of miR-122 as well as a control miRNA, miR-124. The IRES structure was also determined in the presence of a mutant miR-122, in which the seed region of miR-122 was retained (NT 1-9), while the remainder of the miRNA was replaced by the end of miR-124 [miR-122(seed) with miR-124(tail)].
SHAPE performed as previously described by Mortimer & Weeks (2009) Nature protocols 4, 1413-1421; and Wilkinson et al. (2006) Nature protocols 1, 1610-1616 except: RNA purification after acylation and removal of miRNA before RT by RNA C&C (Zymoresearch); DNA purification by size exclusion (Sephadex G-50 resin); 1 pmol RNA used in sequences reactions; fragment analysis protocol (GeneScan/ROX 500 standard/50 cm capillary/POP6/voltage 15 kV/T=60° C./injection time=15 s (3100 ABI); 6-FAM labelled primers), and PeakScanner/FAST analysis. IRES folding29, (100 mM NaCl; 2.5 mM MgCl), alamar blue assay and qRT-PCR were performed as previously described30. Luciferase assay performed as described30, except co-transfection (HCV/LNA) was by lipofectamine 2000 (3.5×10^5 huh 7.5 cells/well), with translation measured at 4 hours. LNAs purchased from Exiqon (Scramble-miR/hsa-miR-122 kd2). Sequence logo: RNA graphics were drawn using RNA Viz. P-values (two-tailed unpaired t-test) calculated by InStat 3 (Graphpad).

With “miR-122: liver-expressed miRNA, UGGAGUGUGA CAAUGGUGUUUG (UGGAGUGUGACAAUGGUGUUUG)” the “effect on IRES structure (SHAPE reactivity)” value (HCV IRES with versus without miRNA) was “induced a number of changes”, the “binding at NTs 32-37” value (outside the complementary seed region) was “results in binding” and the “binding to the S2 target of the IRES (NT 38-42)” value (seed site) was “bound”. For the same substance, the “flexibility of the S2 target site” value (upon addition of miRNA, HCV nucleotides 32-42) was “significant reduction in flexibility” and the “flexibility / reactivity of domain IV (AUG start site)” value (upon addition of miRNA, nucleotides 335, 336, 351) was “becomes more flexible; also recorded: significantly increased flexibility”.
